# Tested on: DMS-273
# Assay: cells
# Type: functional, cell-based
# Conditions: Homo sapiens
# Description: SANGER: Inhibition of human DMS-273 cell growth in a cell viability assay.
row,Structure (SMILES),IC50
1,CC1=C(/C=C/C(C)=C/C=C/C(C)=C/C(=O)O)C(C)(C)CCC1 [TRETINOIN],> 10 µM

# Tested on: FTC-133
# Assay: cells
# Type: functional, cell-based
# Conditions: Homo sapiens
row,Structure (SMILES),IC50
1,CC1=C(/C=C/C(C)=C/C=C/C(C)=C/C(=O)O)C(C)(C)CCC1 [TRETINOIN],> 10 µM

# Tested on: G-402
# Assay: cells
# Type: functional, cell-based
# Conditions: Homo sapiens
# Description: SANGER: Inhibition of human G-402 cell growth in a cell viability assay.
row,Structure (SMILES),IC50
1,CC1=C(/C=C/C(C)=C/C=C/C(C)=C/C(=O)O)C(C)(C)CCC1 [TRETINOIN],> 10 µM

# Tested on: GCT;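 note: GCT cell line proliferation inhibition, read out with a cell viability assay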
# Assay: cells
# Type: functional, cell-based
# Conditions: Homo sapiens
# Description: SANGER: Inhibition of human GCT cell growth in a cell viability assay.
row,Structure (SMILES),IC50
1,CC1=C(/C=C/C(C)=C/C=C/C(C)=C/C(=O)O)C(C)(C)CCC1 [TRETINOIN],> 10 µM

# Tested on: HCC1937;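 note: growth inhibition measured with a cell viability read-out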
# Assay: cells
# Type: functional, cell-based
# Conditions: Homo sapiens
# Description: SANGER: Inhibition of human HCC1937 cell growth in a cell viability assay.
row,Structure (SMILES),IC50
1,CC1=C(/C=C/C(C)=C/C=C/C(C)=C/C(=O)O)C(C)(C)CCC1 [TRETINOIN],> 10 µM

# Tested on: HCC 2998;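 note: growth inhibition of human HCC2998 cells, measured with a cell viability read-out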
# Assay: cells
# Type: functional, cell-based
# Conditions: Homo sapiens
# Description: SANGER: Inhibition of human HCC2998 cell growth in a cell viability assay.
row,Structure (SMILES),IC50
1,CC1=C(/C=C/C(C)=C/C=C/C(C)=C/C(=O)O)C(C)(C)CCC1 [TRETINOIN],> 10 µM

# Tested on: HCT-116
# Assay: cells
# Type: functional, cell-based
# Conditions: Homo sapiens
# Description: SANGER: Inhibition of human HCT-116 cell growth in a cell viability assay.
row,Structure (SMILES),IC50
1,CC1=C(/C=C/C(C)=C/C=C/C(C)=C/C(=O)O)C(C)(C)CCC1 [TRETINOIN],> 10 µM

# Tested on: HSC-2;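 note: growth inhibition of human HSC-2 cells, read out by a cell viability assay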
# Assay: cells
# Type: functional, cell-based
# Conditions: Homo sapiens
# Description: SANGER: Inhibition of human HSC-2 cell growth in a cell viability assay.
row,Structure (SMILES),IC50
1,CC1=C(/C=C/C(C)=C/C=C/C(C)=C/C(=O)O)C(C)(C)CCC1 [TRETINOIN],> 10 µM

# Tested on: HT-29;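 note: growth inhibition of human HT-29 cells, read out by a cell viability assay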
# Assay: cells
# Type: functional, cell-based
# Conditions: Homo sapiens
# Description: SANGER: Inhibition of human HT-29 cell growth in a cell viability assay.
row,Structure (SMILES),IC50
1,CC1=C(/C=C/C(C)=C/C=C/C(C)=C/C(=O)O)C(C)(C)CCC1 [TRETINOIN],> 10 µM

# Tested on: HuTu80;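 note: growth inhibition of HuTu80 human cells, determined with a cell viability readout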
# Assay: cells
# Type: functional, cell-based, Homo sapiens, HUTU-80
# Conditions: Homo sapiens, HuTu80
# Description: SANGER: Inhibition of human HUTU-80 cell growth in a cell viability assay.
row,Structure (SMILES),IC50
1,CC1=C(/C=C/C(C)=C/C=C/C(C)=C/C(=O)O)C(C)(C)CCC1 [TRETINOIN],> 10 µM

# Tested on: JEG-3;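 note: growth inhibition of human JEG-3 cells, read out with a cell viability assay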
# Assay: cells
# Type: functional, cell-based
# Conditions: Homo sapiens
# Description: SANGER: Inhibition of human JEG-3 cell growth in a cell viability assay.
row,Structure (SMILES),IC50
1,CC1=C(/C=C/C(C)=C/C=C/C(C)=C/C(=O)O)C(C)(C)CCC1 [TRETINOIN],> 10 µM

# Tested on: KMOE-2;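 note: growth inhibition of human KMOE-2 cells, read out with a cell viability assay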
# Assay: cells
# Type: functional, cell-based, Homo sapiens
# Conditions: Homo sapiens, KMOE-2
# Description: SANGER: Inhibition of human KMOE-2 cell growth in a cell viability assay.
row,Structure (SMILES),IC50
1,CC1=C(/C=C/C(C)=C/C=C/C(C)=C/C(=O)O)C(C)(C)CCC1 [TRETINOIN],> 10 µM

# Tested on: KYSE-140;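 note: cell viability assay measuring growth inhibition in human KYSE-140 cells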
# Assay: cells
# Type: functional, cell-based
# Conditions: Homo sapiens
# Description: SANGER: Inhibition of human KYSE-140 cell growth in a cell viability assay.
row,Structure (SMILES),IC50
1,CC1=C(/C=C/C(C)=C/C=C/C(C)=C/C(=O)O)C(C)(C)CCC1 [TRETINOIN],> 10 µM

# Tested on: KYSE-150 cell line;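 note: growth inhibition of human KYSE-150 cells, read out with a cell viability assay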
# Assay: cells
# Type: functional, cell-based
# Conditions: Homo sapiens
# Description: SANGER: Inhibition of human KYSE-150 cell growth in a cell viability assay.
row,Structure (SMILES),IC50
1,CC1=C(/C=C/C(C)=C/C=C/C(C)=C/C(=O)O)C(C)(C)CCC1 [TRETINOIN],> 10 µM

# Tested on: KYSE-510;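 note: cell viability readout used to measure how strongly growth of the cell line is suppressed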
# Assay: cells
# Type: functional, cell-based
# Conditions: Homo sapiens
# Description: SANGER: Inhibition of human KYSE-510 cell growth in a cell viability assay.
row,Structure (SMILES),IC50
1,CC1=C(/C=C/C(C)=C/C=C/C(C)=C/C(=O)O)C(C)(C)CCC1 [TRETINOIN],> 10 µM

# Tested on: LB373-MEL-D;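 note: growth inhibition of the cell line, read out in a cell viability assay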
# Assay: cells
# Type: functional, cell-based, Homo sapiens
# Conditions: Homo sapiens, LB373-MEL-D
# Description: SANGER: Inhibition of human LB373-MEL-D cell growth in a cell viability assay.
row,Structure (SMILES),IC50
1,CC1=C(/C=C/C(C)=C/C=C/C(C)=C/C(=O)O)C(C)(C)CCC1 [TRETINOIN],> 10 µM

# Tested on: LN-405
# Assay: cells
# Type: functional, cell-based
# Conditions: Homo sapiens
# Description: SANGER: Inhibition of human LN-405 cell growth in a cell viability assay.
row,Structure (SMILES),IC50
1,CC1=C(/C=C/C(C)=C/C=C/C(C)=C/C(=O)O)C(C)(C)CCC1 [TRETINOIN],> 10 µM

# Tested on: ME-180;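 note: cell viability assay measuring growth inhibition of ME-180 cells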
# Assay: cells
# Type: functional, cell-based
# Conditions: Homo sapiens
# Description: SANGER: Inhibition of human ME-180 cell growth in a cell viability assay.
row,Structure (SMILES),IC50
1,CC1=C(/C=C/C(C)=C/C=C/C(C)=C/C(=O)O)C(C)(C)CCC1 [TRETINOIN],> 10 µM

# Tested on: MKN-7;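 note: growth inhibition of MKN-7 cells, read out with a cell viability assay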
# Assay: cells
# Type: functional, cell-based
# Conditions: Homo sapiens
# Description: SANGER: Inhibition of human MKN7 cell growth in a cell viability assay.
row,Structure (SMILES),IC50
1,CC1=C(/C=C/C(C)=C/C=C/C(C)=C/C(=O)O)C(C)(C)CCC1 [TRETINOIN],> 10 µM

# Tested on: NCI-H1651;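 note: Read-out is a cell viability assay, with IC50 expressing inhibition of NCI-H1651 cell growth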
# Assay: cells
# Type: functional, cell-based
# Conditions: Homo sapiens
# Description: SANGER: Inhibition of human NCI-H1651 cell growth in a cell viability assay.
row,Structure (SMILES),IC50
1,CC1=C(/C=C/C(C)=C/C=C/C(C)=C/C(=O)O)C(C)(C)CCC1 [TRETINOIN],> 10 µM

# Tested on: NCI-H1793;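 note: cell growth inhibition, read out by a cell viability assay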
# Assay: cells
# Type: functional, cell-based
# Conditions: Homo sapiens
# Description: SANGER: Inhibition of human NCI-H1793 cell growth in a cell viability assay.
row,Structure (SMILES),IC50
1,CC1=C(/C=C/C(C)=C/C=C/C(C)=C/C(=O)O)C(C)(C)CCC1 [TRETINOIN],> 10 µM

# Tested on: NCI-H2030;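 note: growth inhibition of human NCI-H2030 cells, read out by a cell viability assay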
# Assay: cells
# Type: functional, cell-based
# Conditions: Homo sapiens
# Description: SANGER: Inhibition of human NCI-H2030 cell growth in a cell viability assay.
row,Structure (SMILES),IC50
1,CC1=C(/C=C/C(C)=C/C=C/C(C)=C/C(=O)O)C(C)(C)CCC1 [TRETINOIN],> 10 µM

# Tested on: NCI-H2122;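 note: growth inhibition of the cells, read out with a cell viability assay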
# Assay: cells
# Type: functional, cell-based
# Conditions: Homo sapiens
# Description: SANGER: Inhibition of human NCI-H2122 cell growth in a cell viability assay.
row,Structure (SMILES),IC50
1,CC1=C(/C=C/C(C)=C/C=C/C(C)=C/C(=O)O)C(C)(C)CCC1 [TRETINOIN],> 10 µM

# Tested on: NCI-H2452;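 note: growth inhibition of NCI-H2452 cells, read out with a cell viability assay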
# Assay: cells
# Type: functional, cell-based
# Conditions: Homo sapiens
# Description: SANGER: Inhibition of human NCI-H2452 cell growth in a cell viability assay.
row,Structure (SMILES),IC50
1,CC1=C(/C=C/C(C)=C/C=C/C(C)=C/C(=O)O)C(C)(C)CCC1 [TRETINOIN],> 10 µM

# Tested on: NCI-H596;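 note: growth inhibition of NCI-H596 cells, read out with a cell viability assay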
# Assay: cells
# Type: functional, cell-based
# Conditions: Homo sapiens
# Description: SANGER: Inhibition of human NCI-H596 cell growth in a cell viability assay.
row,Structure (SMILES),IC50
1,CC1=C(/C=C/C(C)=C/C=C/C(C)=C/C(=O)O)C(C)(C)CCC1 [TRETINOIN],> 10 µM

# Tested on: NCI-H661;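 note: cell viability assay read-out, IC50 being the concentration that inhibits growth of the cells by half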
# Assay: cells
# Type: functional, cell-based
# Conditions: Homo sapiens
# Description: SANGER: Inhibition of human NCI-H661 cell growth in a cell viability assay.
row,Structure (SMILES),IC50
1,CC1=C(/C=C/C(C)=C/C=C/C(C)=C/C(=O)O)C(C)(C)CCC1 [TRETINOIN],> 10 µM

# Tested on: PA-1;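 note: IC50 for suppression of PA-1 cell proliferation, determined with a cell viability read-out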
# Assay: cells
# Type: functional, cell-based
# Conditions: Homo sapiens
# Description: SANGER: Inhibition of human PA-1 cell growth in a cell viability assay.
row,Structure (SMILES),IC50
1,CC1=C(/C=C/C(C)=C/C=C/C(C)=C/C(=O)O)C(C)(C)CCC1 [TRETINOIN],> 10 µM

# Tested on: SK-HEP1;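 note: cell viability readout used to quantify reduction in proliferation of human SK-HEP-1 cells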
# Assay: cells
# Type: functional, cell-based, SK-HEP-1
# Conditions: Homo sapiens
# Description: SANGER: Inhibition of human SK-HEP-1 cell growth in a cell viability assay.
row,Structure (SMILES),IC50
1,CC1=C(/C=C/C(C)=C/C=C/C(C)=C/C(=O)O)C(C)(C)CCC1 [TRETINOIN],> 10 µM

# Tested on: SK-MEL-24;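 note: growth inhibition read out by a cell viability assay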
# Assay: cells
# Type: functional, cell-based
# Conditions: Homo sapiens
# Description: SANGER: Inhibition of human SK-MEL-24 cell growth in a cell viability assay.
row,Structure (SMILES),IC50
1,CC1=C(/C=C/C(C)=C/C=C/C(C)=C/C(=O)O)C(C)(C)CCC1 [TRETINOIN],> 10 µM

# Tested on: SW13;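 note: IC50 is inhibition of SW13 cell growth, read out with a cell viability assay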
# Assay: cells
# Type: functional, cell-based
# Conditions: Homo sapiens
# Description: SANGER: Inhibition of human SW13 cell growth in a cell viability assay.
row,Structure (SMILES),IC50
1,CC1=C(/C=C/C(C)=C/C=C/C(C)=C/C(=O)O)C(C)(C)CCC1 [TRETINOIN],> 10 µM

# Tested on: SW1573;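 note: growth inhibition of SW1573 cells, read out with a cell viability assay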
# Assay: cells
# Type: functional, cell-based
# Conditions: Homo sapiens
# Description: SANGER: Inhibition of human SW1573 cell growth in a cell viability assay.
row,Structure (SMILES),IC50
1,CC1=C(/C=C/C(C)=C/C=C/C(C)=C/C(=O)O)C(C)(C)CCC1 [TRETINOIN],> 10 µM

# Tested on: SW1783;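 note: cell growth inhibition measured with a viability assay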
# Assay: cells
# Type: functional, cell-based
# Conditions: Homo sapiens
# Description: SANGER: Inhibition of human SW1783 cell growth in a cell viability assay.
row,Structure (SMILES),IC50
1,CC1=C(/C=C/C(C)=C/C=C/C(C)=C/C(=O)O)C(C)(C)CCC1 [TRETINOIN],> 10 µM

# Tested on: 786-0
# Assay: cells
# Type: functional, cell-based
# Conditions: Homo sapiens
# Description: SANGER: Inhibition of human 786-0 cell growth in a cell viability assay.
row,Structure (SMILES),IC50
1,CC1=C(/C=C/C(C)=C/C=C/C(C)=C/C(=O)O)C(C)(C)CCC1 [TRETINOIN],> 10 µM

# Tested on: A2780;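 note: growth inhibition of A2780 cells, read out with a cell viability assay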
# Assay: cells
# Type: functional, cell-based
# Conditions: Homo sapiens
# Description: SANGER: Inhibition of human A2780 cell growth in a cell viability assay.
row,Structure (SMILES),IC50
1,CC1=C(/C=C/C(C)=C/C=C/C(C)=C/C(=O)O)C(C)(C)CCC1 [TRETINOIN],> 10 µM

# Tested on: A-375;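 note: growth inhibition of A375 cells, read out with a cell viability assay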
# Assay: cells
# Type: functional, cell-based
# Conditions: Homo sapiens
# Description: SANGER: Inhibition of human A375 cell growth in a cell viability assay.
row,Structure (SMILES),IC50
1,CC1=C(/C=C/C(C)=C/C=C/C(C)=C/C(=O)O)C(C)(C)CCC1 [TRETINOIN],> 10 µM

# Tested on: A673;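 note: growth inhibition of human A673 cells, read out through a cell viability assay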
# Assay: cells
# Type: functional, cell-based
# Conditions: Homo sapiens
# Description: SANGER: Inhibition of human A673 cell growth in a cell viability assay.
row,Structure (SMILES),IC50
1,CC1=C(/C=C/C(C)=C/C=C/C(C)=C/C(=O)O)C(C)(C)CCC1 [TRETINOIN],> 10 µM

# Tested on: ABC-1;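 note: growth inhibition of human ABC-1 cells, read out by a cell viability assay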
# Assay: cells
# Type: functional, cell-based
# Conditions: Homo sapiens
# Description: SANGER: Inhibition of human ABC-1 cell growth in a cell viability assay.
row,Structure (SMILES),IC50
1,CC1=C(/C=C/C(C)=C/C=C/C(C)=C/C(=O)O)C(C)(C)CCC1 [TRETINOIN],> 10 µM

# Tested on: BPH-1;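 note: cell viability assay measuring growth inhibition of human BPH-1 cells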
# Assay: cells
# Type: functional, cell-based
# Conditions: Homo sapiens
# Description: SANGER: Inhibition of human BPH-1 cell growth in a cell viability assay.
row,Structure (SMILES),IC50
1,CC1=C(/C=C/C(C)=C/C=C/C(C)=C/C(=O)O)C(C)(C)CCC1 [TRETINOIN],7.44 µM

# Tested on: BXPC-3;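 note: growth inhibition of human BxPC-3 cells, read out by a cell viability assay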
# Assay: cells
# Type: functional, cell-based
# Conditions: Homo sapiens
# Description: SANGER: Inhibition of human BxPC-3 cell growth in a cell viability assay.
row,Structure (SMILES),IC50
1,CC1=C(/C=C/C(C)=C/C=C/C(C)=C/C(=O)O)C(C)(C)CCC1 [TRETINOIN],> 10 µM

# Tested on: C-33-A;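 note: cell viability assay measuring growth inhibition of C-33-A cells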
# Assay: cells
# Type: functional, cell-based
# Conditions: Homo sapiens
# Description: SANGER: Inhibition of human C-33-A cell growth in a cell viability assay.
row,Structure (SMILES),IC50
1,CC1=C(/C=C/C(C)=C/C=C/C(C)=C/C(=O)O)C(C)(C)CCC1 [TRETINOIN],> 10 µM

# Tested on: CAL-33;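 note: growth inhibition of CAL-33 cells, read out with a cell viability assay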
# Assay: cells
# Type: functional, cell-based
# Conditions: Homo sapiens
# Description: SANGER: Inhibition of human CAL-33 cell growth in a cell viability assay.
row,Structure (SMILES),IC50
1,CC1=C(/C=C/C(C)=C/C=C/C(C)=C/C(=O)O)C(C)(C)CCC1 [TRETINOIN],> 10 µM

# Tested on: CAL-51;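 note: human CAL-51 cell line, growth inhibition read out via a cell viability assay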
# Assay: cells
# Type: functional, cell-based
# Conditions: Homo sapiens
# Description: SANGER: Inhibition of human CAL-51 cell growth in a cell viability assay.
row,Structure (SMILES),IC50
1,CC1=C(/C=C/C(C)=C/C=C/C(C)=C/C(=O)O)C(C)(C)CCC1 [TRETINOIN],> 10 µM

# Tested on: CAL-54;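 note: growth inhibition of CAL-54 cells, read out by a viability measurement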
# Assay: cells
# Type: functional, cell-based
# Conditions: Homo sapiens
# Description: SANGER: Inhibition of human CAL-54 cell growth in a cell viability assay.
row,Structure (SMILES),IC50
1,CC1=C(/C=C/C(C)=C/C=C/C(C)=C/C(=O)O)C(C)(C)CCC1 [TRETINOIN],> 10 µM

# Tested on: CAL-85-1;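 note: growth inhibition of human CAL-85-1 cells, read out with a cell viability assay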
# Assay: cells
# Type: functional, cell-based
# Conditions: Homo sapiens
# Description: SANGER: Inhibition of human CAL-85-1 cell growth in a cell viability assay.
row,Structure (SMILES),IC50
1,CC1=C(/C=C/C(C)=C/C=C/C(C)=C/C(=O)O)C(C)(C)CCC1 [TRETINOIN],> 10 µM

# Tested on: UMUC3;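 note: growth inhibition of human UM-UC-3 cells, read out with a cell viability assay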
# Assay: cells
# Type: functional, cell-based
# Conditions: Homo sapiens
# Description: SANGER: Inhibition of human UM-UC-3 cell growth in a cell viability assay.
row,Structure (SMILES),IC50
1,CC1=C(/C=C/C(C)=C/C=C/C(C)=C/C(=O)O)C(C)(C)CCC1 [TRETINOIN],> 10 µM

# Tested on: VM-CUB-1;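 note: cell viability assay measuring growth inhibition of the human VM-CUB-1 cell line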
# Assay: cells
# Type: functional, cell-based
# Conditions: Homo sapiens
# Description: SANGER: Inhibition of human VM-CUB-1 cell growth in a cell viability assay.
row,Structure (SMILES),IC50
1,CC1=C(/C=C/C(C)=C/C=C/C(C)=C/C(=O)O)C(C)(C)CCC1 [TRETINOIN],> 10 µM

# Tested on: YKG-1;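 note: cell growth inhibition, read out with a viability assay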
# Assay: cells
# Type: functional, cell-based
# Conditions: Homo sapiens
# Description: SANGER: Inhibition of human YKG-1 cell growth in a cell viability assay.
row,Structure (SMILES),IC50
1,CC1=C(/C=C/C(C)=C/C=C/C(C)=C/C(=O)O)C(C)(C)CCC1 [TRETINOIN],> 10 µM

# Source: ChEMBL document CHEMBL1201861, “Genomics of Drug Sensitity in Cancer screening data, Wellcome Trust Sanger Institute”
